Assay results as given in PubChem BioAssay AID2060897 (Molecular Pharmacology Branch, DTP, NCI, 2025).

Tested on: 966289-007-R4-J1-PDC complex spheroid viability
Assay: Anticancer human tumor 966289-007-R4-J1-PDC patient-derived pancreatic adenocarcinoma cell line growth inhibition [RAS]
Conditions: for IC50: curve of first compound; for viability, T/C: stronger effect = lower value
How it was run: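 Tumour cells grown as complex spheroids with HUVEC endothelial cells and mesenchymal stem cells, treated with RAS pathway inhibitor combinations. Each agent spans half-log steps from near clinical Cmax, or 10 microM where Cmax is unknown.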

[1] = second compound 0.000949 µM, first compound 0.0316 µM
[2] = second compound 0.000949 µM, first compound 0.1 µM
[3] = second compound 0.000949 µM, first compound 0.316 µM
[4] = second compound 0.000949 µM, first compound 1 µM
[5] = second compound 0.000949 µM, first compound 3.16 µM
[6] = second compound 0.000949 µM, first compound 10 µM
[7] = second compound 0.003 µM, first compound 0.0316 µM
[8] = second compound 0.003 µM, first compound 0.1 µM
[9] = second compound 0.003 µM, first compound 0.316 µM
[10] = second compound 0.003 µM, first compound 1 µM
[11] = second compound 0.003 µM, first compound 3.16 µM
[12] = second compound 0.003 µM, first compound 10 µM
[13] = second compound 0.00949 µM, first compound 0.0316 µM
[14] = second compound 0.00949 µM, first compound 0.1 µM
[15] = second compound 0.00949 µM, first compound 0.316 µM
[16] = second compound 0.00949 µM, first compound 1 µM
[17] = second compound 0.00949 µM, first compound 3.16 µM
[18] = second compound 0.00949 µM, first compound 10 µM
[19] = second compound 0.03 µM, first compound 0.0316 µM
[20] = second compound 0.03 µM, first compound 0.1 µM
[21] = second compound 0.03 µM, first compound 0.316 µM
[22] = second compound 0.03 µM, first compound 1 µM
[23] = second compound 0.03 µM, first compound 3.16 µM
[24] = second compound 0.03 µM, first compound 10 µM
[25] = second compound 0.0949 µM, first compound 0.0316 µM
[26] = second compound 0.0949 µM, first compound 0.1 µM
[27] = second compound 0.0949 µM, first compound 0.316 µM
[28] = second compound 0.0949 µM, first compound 1 µM
[29] = second compound 0.0949 µM, first compound 3.16 µM
[30] = second compound 0.0949 µM, first compound 10 µM
[31] = second compound 0.3 µM, first compound 0.0316 µM
[32] = second compound 0.3 µM, first compound 0.1 µM
[33] = second compound 0.3 µM, first compound 0.316 µM
[34] = second compound 0.3 µM, first compound 1 µM
[35] = second compound 0.3 µM, first compound 3.16 µM
[36] = second compound 0.3 µM, first compound 10 µM
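Also: spheroids exposed to agents for one week before readout.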
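For viability, T/C in this document: percent viability relative to DMSO vehicle control wells as 100%.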

With `CC1(O)CCCC1n1c(=O)c(C(F)F)cc2cnc(NC3CCN(S(C)(=O)=O)CC3)nc21` (stereo unspecified) + CCn1c(-c2cccnc2C(C)OC)c2c3cc(ccc31)N1CCOC(CC(NC(=O)C(C(C)C)N(C)C(=O)C3(F)CCN(C(=O)C#CC(C)(C)N(C)C)CC3)C(=O)N3CCCC(N3)C(=O)OCC(C)(C)C2)C1 the IC50 (second compound 0.000949 µM) was 126 nM, the IC50 (second compound 0.003 µM) was 155 nM and the IC50 (second compound 0.00949 µM) was 155 nM. For the same compound, the IC50 (second compound 0.03 µM) was 81.7 nM, the IC50 (second compound 0.0949 µM) was 106 nM and the IC50 (second compound 0.3 µM) was 107 nM. It also gave a viability, T/C [1] of 102%, a viability, T/C [2] of 57.9% and a viability, T/C [3] of 21.9%. The viability, T/C [4] was 24.9%, the viability, T/C [5] was 20.7% and the viability, T/C [6] was 3.78%. For the same compound, the viability, T/C [7] was 115%, the viability, T/C [8] was 67.3% and the viability, T/C [9] was 21.2%. For the same compound, the viability, T/C [10] was 22.8%, the viability, T/C [11] was 23.8% and the viability, T/C [12] was 4.11%. It also gave a viability, T/C [13] of 83.1%, a viability, T/C [14] of 68.5% and a viability, T/C [15] of 19.7%. For the same compound, the viability, T/C [16] was 18.9%, the viability, T/C [17] was 23.4% and the viability, T/C [18] was 2.04%. For the same compound, the viability, T/C [19] was 91.6%, the viability, T/C [20] was 41.3% and the viability, T/C [21] was 18.8%. It also gave a viability, T/C [22] of 21.4%, a viability, T/C [23] of 24.4% and a viability, T/C [24] of 1.8%. For the same compound, the viability, T/C [25] was 99.3%, the viability, T/C [26] was 51.8% and the viability, T/C [27] was 16.9%. The viability, T/C [28] was 21.4%, the viability, T/C [29] was 26% and the viability, T/C [30] was 1.18%. For the same compound, the viability, T/C [31] was 64.1%, the viability, T/C [32] was 52.2% and the viability, T/C [33] was 16%. The viability, T/C [34] was 23.2%, the viability, T/C [35] was 24.1% and the viability, T/C [36] was 1.49%.

`CCN1CCN(Cc2ccc(Nc3ncc(F)c(-c4cc(F)c5nc(C)n(C(C)C)c5c4)n3)nc2)CC1` + CCn1c(-c2cccnc2C(C)OC)c2c3cc(ccc31)N1CCOC(CC(NC(=O)C(C(C)C)N(C)C(=O)C3(F)CCN(C(=O)C#CC(C)(C)N(C)C)CC3)C(=O)N3CCCC(N3)C(=O)OCC(C)(C)C2)C1 showed an IC50 (second compound 0.000949 µM) greater than 1000 nM, an IC50 (second compound 0.003 µM) greater than 1000 nM and an IC50 (second compound 0.00949 µM) greater than 1000 nM. The IC50 (second compound 0.03 µM) was greater than 1000 nM, the IC50 (second compound 0.0949 µM) was greater than 1000 nM and the IC50 (second compound 0.3 µM) was greater than 1000 nM. For the same compound, the viability, T/C (second compound 0.000949 µM, first compound 0.00316 µM) was 107%, the viability, T/C (second compound 0.000949 µM, first compound 0.01 µM) was 84.9% and the viability, T/C [1] was 104%. For the same compound, the viability, T/C [2] was 81.3%, the viability, T/C [3] was 85.6% and the viability, T/C [4] was 79.3%. It also gave a viability, T/C (second compound 0.003 µM, first compound 0.00316 µM) of 106%, a viability, T/C (second compound 0.003 µM, first compound 0.01 µM) of 78.2% and a viability, T/C [7] of 93.7%. The viability, T/C [8] was 79.8%, the viability, T/C [9] was 93.4% and the viability, T/C [10] was 84.1%. It also gave a viability, T/C (second compound 0.00949 µM, first compound 0.00316 µM) of 69.9%, a viability, T/C (second compound 0.00949 µM, first compound 0.01 µM) of 90.2% and a viability, T/C [13] of 104%. For the same compound, the viability, T/C [14] was 90.4%, the viability, T/C [15] was 90% and the viability, T/C [16] was 78.5%. It also gave a viability, T/C (second compound 0.03 µM, first compound 0.00316 µM) of 77.8%, a viability, T/C (second compound 0.03 µM, first compound 0.01 µM) of 83.3% and a viability, T/C [19] of 99.5%. It also gave a viability, T/C [20] of 81.4%, a viability, T/C [21] of 90.9% and a viability, T/C [22] of 78.9%. It also gave a viability, T/C (second compound 0.0949 µM, first compound 0.00316 µM) of 78.4%, a viability, T/C (second compound 0.0949 µM, first compound 0.01 µM) of 99.6% and a viability, T/C [25] of 112%. The viability, T/C [26] was 99.8%, the viability, T/C [27] was 94.4% and the viability, T/C [28] was 79.9%. For the same compound, the viability, T/C (second compound 0.3 µM, first compound 0.00316 µM) was 83.3%, the viability, T/C (second compound 0.3 µM, first compound 0.01 µM) was 88.6% and the viability, T/C [31] was 101%. For the same compound, the viability, T/C [32] was 87.7%, the viability, T/C [33] was 91% and the viability, T/C [34] was 81.3%.

Work on `C[C@@H](NC(=O)c1ncnc(N)c1Cl)c1ncc(C(=O)Nc2cc(C(F)(F)F)c(Cl)cn2)s1` + CCn1c(-c2cccnc2C(C)OC)c2c3cc(ccc31)N1CCOC(CC(NC(=O)C(C(C)C)N(C)C(=O)C3(F)CCN(C(=O)C#CC(C)(C)N(C)C)CC3)C(=O)N3CCCC(N3)C(=O)OCC(C)(C)C2)C1 yielded an IC50 (second compound 0.000949 µM) greater than 10000 nM, an IC50 (second compound 0.003 µM) greater than 10000 nM and an IC50 (second compound 0.00949 µM) greater than 10000 nM. The IC50 (second compound 0.03 µM) was greater than 10000 nM, the IC50 (second compound 0.0949 µM) was greater than 10000 nM and the IC50 (second compound 0.3 µM) was greater than 10000 nM. The viability, T/C [1] was 115%, the viability, T/C [2] was 92.1% and the viability, T/C [3] was 91.9%. The viability, T/C [4] was 47.5%, the viability, T/C [5] was 66.5% and the viability, T/C [6] was 100%. For the same compound, the viability, T/C [7] was 92.5%, the viability, T/C [8] was 75.4% and the viability, T/C [9] was 118%. For the same compound, the viability, T/C [10] was 61%, the viability, T/C [11] was 72.3% and the viability, T/C [12] was 118%. The viability, T/C [13] was 70.2%, the viability, T/C [14] was 80.6% and the viability, T/C [15] was 71.3%. It also gave a viability, T/C [16] of 85%, a viability, T/C [17] of 115% and a viability, T/C [18] of 111%. The viability, T/C [19] was 55.4%, the viability, T/C [20] was 57.1% and the viability, T/C [21] was 81%. For the same compound, the viability, T/C [22] was 73.5%, the viability, T/C [23] was 120% and the viability, T/C [24] was 98.5%. For the same compound, the viability, T/C [25] was 55.5%, the viability, T/C [26] was 99.1% and the viability, T/C [27] was 87%. It also gave a viability, T/C [28] of 78.2%, a viability, T/C [29] of 106% and a viability, T/C [30] of 134%. The viability, T/C [31] was 65.6%, the viability, T/C [32] was 91.7% and the viability, T/C [33] was 90.5%. It also gave a viability, T/C [34] of 117%, a viability, T/C [35] of 146% and a viability, T/C [36] of 105%.
